{"source": "ChEMBL document CHEMBL5053491", "about": "“Rational designed highly sensitive NQO1-activated near-infrared fluorescent probe combined with NQO1 substrates in vivo: An innovative strategy for NQO1-overexpressing cancer theranostics” (Eur J Med Chem, 2021)", "key": {"[1]": {"biological_target": "NAD(P)H dehydrogenase [quinone] 1 (Homo sapiens) (UniProt P15559)", "sequence (P15559 whole entry)": "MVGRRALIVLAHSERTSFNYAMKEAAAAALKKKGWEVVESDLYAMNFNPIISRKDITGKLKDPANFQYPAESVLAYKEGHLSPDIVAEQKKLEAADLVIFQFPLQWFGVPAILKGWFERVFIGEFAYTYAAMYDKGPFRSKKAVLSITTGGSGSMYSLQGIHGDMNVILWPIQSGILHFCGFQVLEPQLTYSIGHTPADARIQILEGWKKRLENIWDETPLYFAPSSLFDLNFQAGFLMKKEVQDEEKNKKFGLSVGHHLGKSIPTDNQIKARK", "experiment": "Substrate activity at recombinant human NQO1 assessed as enzyme activity by measuring oxidation of NADPH incubated for 5 mins measured per micromol of NADPH by NADPH recycling assay"}, "A549 [2]": {"tested_on": "A549", "experiment": "Antitumor activity against human A549 cells xenografted in BALB/c nude mouse assessed as fluorescence intensity at 30 mg/kg, ip administered for 21 days", "assay_type": "functional", "settings": "time 21 day; call rule not given here"}, "[3]": {"experiment": "Drug uptake in BALB/c nude mouse infected with human A549 cells at 5 mg/kg, iv measured upto 15 mins by fluorescence spectrophotometric analysis", "assay_type": "ADME, organism-based", "settings": "in vivo, 0.25 h"}, "[4]": {"experiment": "Stability of compound in human plasma assessed as compound remaining at 37 degree C measured after 24 hrs by HPLC analysis", "assay_type": "ADME, cell-free"}, "[5]": {"experiment": "Drug uptake in NQO1 rich human A549 cells at 10 uM incubated for 20 mins by confocal microscopy", "assay_type": "ADME, cell-based", "settings": "a549, 20 min"}, "[6]": {"experiment": "Drug uptake in NQO1-deficient human NCI-H596 cells at 10 uM incubated for 20 mins by confocal microscopy", "assay_type": "ADME, cell-based", "settings": "nci-h596, 20 min"}, "A549 [7]": {"tested_on": "A549", "experiment": "Cytotoxicity against human A549 cells assessed as growth inhibition measured after 72 hrs by MTT assay", "assay_type": "functional", "parameters": "scale not given: the % may be the effect or the level left"}, "[8]": {"experiment": "Stability of compound in rat plasma assessed as compound remaining at 37 degree C measured after 24 hrs by HPLC analysis", "assay_type": "ADME, cell-free"}, "[9]": {"experiment": "Water solubility of compound by HPLC analysis", "assay_type": "physicochemical"}, "[10]": {"experiment": "Stability of compound in mouse plasma assessed as compound remaining at 37 degree C measured after 24 hrs by HPLC analysis", "assay_type": "ADME, cell-free"}, "[11]": {"experiment": "Stability of compound in PBS at pH 4 to 9 assessed as compound remaining at 37 degree C measured after 24 hrs by HPLC analysis", "assay_type": "physicochemical", "settings": "buffer, pH 4, 24 h"}, "A549 [12]": {"tested_on": "A549", "experiment": "Antitumor activity against human A549 cells xenografted in BALB/c nude mouse assessed as tumor volume change at 30 mg/kg, ip administered for 21 days", "assay_type": "functional", "settings": "time 21 day"}, "A549 [13]": {"tested_on": "A549", "experiment": "Antitumor activity against human A549 cells xenografted in BALB/c nude mouse assessed as tumor inhibition rate at 30 mg/kg, ip administered for 21 days", "assay_type": "functional", "parameters": "scale not given: the % may be the effect or the level left", "settings": "time 21 day"}}}
{"smiles": "O=C(O)CCC1=CC(=O)c2ccccc2C1=O", "values": [{"measurement": "Activity", "setting": "[1]", "result": 900, "unit": "µmol/min"}]}
{"smiles": "CC1=C(C(C)(C)CC(=O)O)C(=O)c2ccccc2C1=O", "values": [{"measurement": "Activity", "setting": "[1]", "result": 1480, "unit": "µmol/min"}]}
{"smiles": "CC1=C(C)C(=O)C(C(C)(C)CC(=O)O)=C(C)C1=O", "values": [{"measurement": "Activity", "setting": "[1]", "result": 1070, "unit": "µmol/min"}]}
{"smiles": "O=c1[nH]cc(F)c(=O)[nH]1", "note": "[FLUOROURACIL]", "values": [{"measurement": "Activity", "setting": "A549 [2]", "result": 75.7, "unit": "%"}]}
{"smiles": "CC1=C(C)C(=O)C(C(C)(C)CC(=O)N(C)c2ccc(COC(=O)N3c4ccc(N(C)C)cc4Sc4cc(N(C)C)ccc43)cc2)=C(C)C1=O", "values": [{"measurement": "Drug uptake", "setting": "[3]", "result": "Not Active"}]}
{"smiles": "CC1=C(C(C)(C)CC(=O)N(C)c2ccc(COC(=O)N3c4ccc(N(C)C)cc4Sc4cc(N(C)C)ccc43)cc2)C(=O)c2ccccc2C1=O", "values": [{"measurement": "Stability", "setting": "[4]", "result": "Stable"}, {"measurement": "Drug uptake", "setting": "[3]", "result": "Active"}, {"measurement": "Drug uptake", "setting": "[5]", "result": "Active"}, {"measurement": "Activity", "setting": "A549 [2]", "result": 75.6, "unit": "%"}, {"measurement": "Drug uptake", "setting": "[6]", "result": "Not Active"}, {"measurement": "Activity", "setting": "A549 [7]", "result": ">80", "unit": "%"}, {"measurement": "Stability", "setting": "[8]", "result": "Stable"}, {"measurement": "solubility", "setting": "[9]", "result": 6.5, "unit": "µg/mL"}, {"measurement": "Stability", "setting": "[10]", "result": "Stable"}, {"measurement": "Stability", "setting": "[11]", "result": "Stable"}]}
{"smiles": "CC1(C)CCC2=C(O1)c1ccccc1C(=O)C2=O", "note": "[LAPACHONE]", "values": [{"measurement": "Activity", "setting": "A549 [12]", "result": 69.1, "unit": "%"}, {"measurement": "Activity", "setting": "A549 [13]", "result": 67.7, "unit": "%"}]}
{"smiles": "Cc1cc2c(cc1C)-c1oc(CN3CCN(C)CC3)c(C)c1C(=O)C2=O", "values": [{"measurement": "Activity", "setting": "A549 [12]", "result": 77, "unit": "%"}, {"measurement": "Activity", "setting": "A549 [13]", "result": 79.8, "unit": "%"}]}
{"smiles": "CC1=C(CCC(=O)O)C(=O)c2ccccc2C1=O", "values": [{"measurement": "Activity", "setting": "[1]", "result": 1080, "unit": "µmol/min"}]}
{"smiles": "CC(C)(CC(=O)O)C1=CC(=O)c2ccccc2C1=O", "values": [{"measurement": "Activity", "setting": "[1]", "result": 1220, "unit": "µmol/min"}]}
